Data: US11059801B2, “Methods to induce targeted protein degradation through bifunctional molecules” (Dana-Farber Cancer Institute, Inc., priority 2014, dated 2021)
Where two headings read alike, the source gives them in different places. One block for each molecule: values may come before it.

What was measured:
[1] = molecular target: CRBN-DDB1/BRD4 (Homo sapiens (Human), UniProt O60885+Q96SW2); assay: CRBN-DDB1/BRD4 Dimerization Assay; type: binding; conditions: for Dimer Amplitude / Dimer Mean: Gaussian fit of dimerization signal; for Dimer SD: Gaussian fit parameter of dimerization signal;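 on all read-outs here: AlphaScreen proximity signal between GST-tagged BRD4 and CRBN-DDB1 with glutathione donor and nickel chelate acceptor beads, read after 1 hr compound incubation at room temperature, values from Gaussian curve fit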
[2] = molecular target: IKZF1 adjoined to nanoluciferase (Nluc) (Homo sapiens (Human), UniProt Q13422); assay: IKZF1 Dual Luciferase Assay; type: cell-based; conditions: 4 hours; read-out: Nluc/Fluc IKZF1 IC50
Procedure: Transduced cells were selected with puromycin at 2 μg/mL and expanded. […] Cells were incubated with compound for 4 hours at 37° C., 5% CO2 and then allowed to cool to room temperature. To each plate was added 25 μL of Fluc buffer (200 mM Tris, 15 mM MgSO4, 100 uM EDTA, 1 mM DTT, 1 mM ATP, 200 uM Coenzyme A, 400 uM D-Luciferin, 0.1% Trition X-100).

[3] = molecular target: fusion of mutant FKBP12 to nanoluciferase (Homo sapiens (Human), UniProt P62942+Q96SW2, F36V); assay: FKBP Dual Luciferase Assay (mutant FKBP12, 36V); type: cell-based; conditions: for Dmax: read-out: Max Degradation (dual luciferase, %) FKBP 36V;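 on all read-outs here: cells exposed to rising degrader concentrations, FKBP12 fusion level read as NLuc/FLuc signal ratio, lower ratio means more degradation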
Procedure: The cells were treated with increasing concentrations of various dFKBPs for 4 hours. The amount of NLuc and FLuc was measured, and the abundance of the FKBP12-HA-NLuc was quantified by calculating the signal ratio of NLuc/FLuc.

[4] = FKBP 36V, 4 hours, read-out: DC50 (nM) FKBP 36V

- Dimer Amplitude [1]: 16889
- Dimer Mean [1]: −7.496
- Dimer SD [1]: 0.5198
Structure (SMILES): Cc1sc2c(c1C)C(c1ccc(Cl)cc1)=N[C@@H](CC(=O)NCCCOCCOCCOCCCNC(=O)COc1cccc3c1C(=O)N(C1CCC(=O)NC1=O)C3=O)c1nnc(C)n1-2 (stereo partly shown) [dBET9]

- DC50 [2]: 111 nM
Structure (SMILES): Cc1cccc2c1C(=O)N(C1CCC(=O)NC1=O)C2=O [Compound D-19, 2-(2,6-dioxopiperidin-3-yl)-4-methylisoindoline-1,3-dione]

- DC50 [3, 4]: 6.4 nM
- Dmax ([3]; FKBP 36V, 4 hours): 80%
Structure (SMILES): CC[C@H](C(=O)N1CCCC[C@H]1C(=O)OC(CCc1ccc(OC)c(OC)c1)c1cccc(OCC(=O)NCCCCOc2cccc3c2C(=O)N(C2CCC(=O)NC2=O)C3=O)c1)c1cc(OC)c(OC)c(OC)c1 (stereo partly shown) [dFKBP*-18]

- DC50 [3, 4]: 99 nM
- Dmax ([3]; FKBP 36V, 4 hours): 38%
Structure (SMILES): CC[C@H](C(=O)N1CCCC[C@H]1C(=O)OC(CCc1ccc(OC)c(OC)c1)c1cccc(OCC(=O)NCCCCC(=O)Nc2cccc3c2C(=O)N(C2CCC(=O)NC2=O)C3=O)c1)c1cc(OC)c(OC)c(OC)c1 (stereo partly shown) [dFKBP*-16]

- DC50 [2]: 444 nM
Structure (SMILES): CC(=O)Nc1cccc2c1C(=O)N(C1CCC(=O)NC1=O)C2=O [Compound D-3, N-(2-(2,6-dioxopiperidin-3-yl)-1,3-dioxoisoindolin-4-yl)acetamide]

- DC50 [2]: > 50000 nM
Structure (SMILES): CC(=O)Nc1ccc2c(c1)C(=O)N(C1CCC(=O)NC1=O)C2=O [Compound D-5, N-(2-(2,6-dioxopiperidin-3-yl)-1,3-dioxoisoindolin-5-yl)acetamide]

- DC50 [2]: 140 nM
Structure (SMILES): CCN(CC)c1cccc2c1C(=O)N(C1CCC(=O)NC1=O)C2=O [Compound D-21, 4-(diethylamino)-2-(2,6-dioxopiperidin-3-yl)isoindoline-1,3-dione]

- DC50 [2]: > 50000 nM
Structure (SMILES): CC(C)Nc1ccc2c(c1)C(=O)N(C1CCC(=O)NC1=O)C2=O [Compound D-26, 2-(2,6-dioxopiperidin-3-yl)-5-(isopropylamino)isoindoline-1,3-dione]

- Dimer Amplitude [1]: 20549
- Dimer Mean [1]: −7.428
- Dimer SD [1]: 0.7005
Structure (SMILES): CC[C@@H]1C(=O)N(C)c2cnc(Nc3ccc(C(=O)NCCCCNC(=O)COc4cccc5c4C(=O)N(C4CCC(=O)NC4=O)C5=O)cc3OC)nc2N1C1CCCC1 (stereo partly shown) [dBET2]

- DC50 [2]: > 50000 nM
Structure (SMILES): O=C1CCC(N2C(=O)c3cccc(F)c3C2=O)C(=O)N1 [Compound D-14, 2-(2,6-dioxopiperidin-3-yl)-4-fluoroisoindoline-1,3-dione]

Structure (SMILES): CC[C@H](C(=O)N1CCCC[C@H]1C(=O)O[C@H](CCc1ccc(OC)c(OC)c1)c1cccc(OCC(=O)NCCCCCCCCNC(=O)COc2cccc3c2C(=O)N(C2CCC(=O)NC2=O)C3=O)c1)c1cc(OC)c(OC)c(OC)c1 (stereo partly shown) [c1FKBP*-9]
- DC50 ([3]; read-out: DC50 (nM) FKBP 36V, 4 hours): 3.9 nM

- DC50 [2]: > 50000 nM
Structure (SMILES): O=C1CCC(N2C(=O)c3ccc(NCc4ccccc4)cc3C2=O)C(=O)N1 [Compound D-25, 5-(benzylamino)-2-(2,6-dioxopiperidin-3-yl)isoindoline-1,3-dione]

- DC50 [2]: > 50000 nM
Structure (SMILES): O=C1CCC(N2C(=O)c3ccc(C(=O)NCc4ccccc4)cc3C2=O)C(=O)N1 [Compound D-15, N-benzyl-2-(2,6-dioxopiperidin-3-yl)-1,3-dioxoisoindoline-5-carboxamide]

- DC50 [2]: 534 nM
Structure (SMILES): O=C1CCC(N2C(=O)c3cccc(CNC(=O)C4CC4)c3C2=O)C(=O)N1 [Compound D-22, N-((2-(2,6-dioxopiperidin-3-yl)-1,3-dioxoisoindolin-4-yl)methyl)cyclopropanecarboxamide]

- DC50 [3, 4]: 57 nM
- Dmax ([3]; FKBP 36V, 4 hours): 85%
Structure (SMILES): CC[C@H](C(=O)N1CCCC[C@H]1C(=O)OC(CCc1ccc(OC)c(OC)c1)c1cccc(OCC(=O)NCCCCCCCCCCOc2cccc3c2C(=O)N(C2CCC(=O)NC2=O)C3=O)c1)c1cc(OC)c(OC)c(OC)c1 (stereo partly shown) [dFKBP*-14]

- Dimer Amplitude [1]: 758.9
- Dimer Mean [1]: −6.306
- Dimer SD [1]: 1.327
Structure (SMILES): Cc1sc2c(c1C)C(c1ccc(Cl)cc1)=N[C@@H](CC(=O)NCCCCCCCCOc1cccc3c1C(=O)N(C1CCC(=O)NC1=O)C3=O)c1nnc(C)n1-2 (stereo partly shown) [dBET21]

- DC50 [2]: > 50000 nM
Structure (SMILES): CCN(CC)c1ccc2c(c1)C(=O)N(C1CCC(=O)NC1=O)C2=O [Compound D-27, 5-(diethylamino)-2-(2,6-dioxopiperidin-3-yl)isoindoline-1,3-dione]

- DC50 [2]: > 50000 nM
Structure (SMILES): Cc1nc2ccccc2c(=O)n1C1CC(=O)NC1=O [Compound D-11, 3-(2-methyl-4-oxoquinazolin-3(4H)-yl)pyrrolidine-2,5-dione]

- DC50 [3, 4]: 1.2 nM
- Dmax ([3]; FKBP 36V, 4 hours): 83%
Structure (SMILES): CC[C@H](C(=O)N1CCCC[C@H]1C(=O)OC(CCc1ccc(OC)c(OC)c1)c1cccc(OCC(=O)NCCCCCCOc2cccc3c2C(=O)N(C2CCC(=O)NC2=O)C3=O)c1)c1cc(OC)c(OC)c(OC)c1 (stereo partly shown) [dFKBP*-13]

- DC50 [2]: > 50000 nM
Structure (SMILES): O=C1CCC(N2C(=O)c3ccc(F)cc3C2=O)C(=O)N1 [Compound D-24, 2-(2,6-dioxopiperidin-3-yl)-5-fluoroisoindoline-1,3-dione]

- DC50 [2]: > 50000 nM
Structure (SMILES): O=C1CCC(N2C(=O)c3cccc(O)c3C2=O)C(=O)N1 [Compound D-1, 2-(2,6-dioxopiperidin-3-yl)-4-hydroxyisoindoline-1,3-dione]

- DC50 [2]: > 50000 nM
Structure (SMILES): O=C1CCC(N2C(=O)c3cccc([N+](=O)[O-])c3C2=O)C(=O)N1 [Compound D-10, 2-(2,6-dioxopiperidin-3-yl)-4-nitroisoindoline-1,3-dione]

- DC50 [3, 4]: 1.7 nM
- Dmax ([3]; FKBP 36V, 4 hours): 94%
Structure (SMILES): CC[C@H](C(=O)N1CCCC[C@H]1C(=O)O[C@H](CCc1ccc(OC)c(OC)c1)c1cccc(OCC(=O)NCCOCCOc2cccc3c2C(=O)N(C2CCC(=O)NC2=O)C3=O)c1)c1cc(OC)c(OC)c(OC)c1 (stereo partly shown) [dFKBP*-19]

- DC50 [2]: 1020 nM
Structure (SMILES): CC(=O)NCc1cccc2c1C(=O)N(C1CCC(=O)NC1=O)C2=O [Compound D-23, N-((2-(2,6-dioxopiperidin-3-yl)-1,3-dioxoisoindolin-4-yl)methyl)acetamide]

- DC50 [3, 4]: 17 nM
- Dmax ([3]; FKBP 36V, 4 hours): 75.7%
Structure (SMILES): CC[C@H](C(=O)N1CCCC[C@H]1C(=O)OC(CCc1ccc(OC)c(OC)c1)c1cccc(OCC(=O)NCCCCCCCC(=O)Nc2cccc3c2C(=O)N(C2CCC(=O)NC2=O)C3=O)c1)c1cc(OC)c(OC)c(OC)c1 (stereo partly shown) [dFKBP*-20]

- DC50 [2]: 7610 nM
Structure (SMILES): Cc1nc2ccccc2c(=O)n1C1CCC(=O)NC1=O [Compound D-9, 3-(2-methyl-4-oxoquinazolin-3(4H)-yl)piperidine-2,6-dione]

- DC50 [2]: 23.9 nM
Structure (SMILES): O=C1CCC(N2C(=O)c3cccc(NCc4ccccc4)c3C2=O)C(=O)N1 [Compound D-16, 4-(benzylamino)-2-(2,6-dioxopiperidin-3-yl)isoindoline-1,3-dione]

- DC50 [3, 4]: 15 nM
- Dmax ([3]; FKBP 36V, 4 hours): 91%
Structure (SMILES): CC[C@H](C(=O)N1CCCC[C@H]1C(=O)OC(CCc1ccc(OC)c(OC)c1)c1cccc(OCC(=O)NCc2ccc(CNC(=O)COc3cccc4c3C(=O)N(C3CCC(=O)NC3=O)C4=O)cc2)c1)c1cc(OC)c(OC)c(OC)c1 (stereo partly shown) [dFKBP*-21]

- DC50 [2]: > 50000 nM
Structure (SMILES): O=C1CCC(N2C(=O)c3ccc(C(=O)O)cc3C2=O)C(=O)N1 [Compound D-13, 2-(2,6-dioxopiperidin-3-yl)-1,3-dioxoisoindoline-5-carboxylic acid]

- DC50 [3, 4]: 69 nM
- Dmax ([3]; FKBP 36V, 4 hours): 64%
Structure (SMILES): CC[C@H](C(=O)N1CCCC[C@H]1C(=O)OC(CCc1ccc(OC)c(OC)c1)c1cccc(OCC(=O)NCCCOCCCNC(=O)COc2cccc3c2C(=O)N(C2CCC(=O)NC2=O)C3=O)c1)c1cc(OC)c(OC)c(OC)c1 (stereo partly shown) [dFKBP*-17]

- DC50 [3, 4]: 28 nM
- Dmax ([3]; FKBP 36V, 4 hours): 66%
Structure (SMILES): CC[C@H](C(=O)N1CCCC[C@H]1C(=O)O[C@H](CCc1ccc(OC)c(OC)c1)c1cccc(OCC(=O)NCCOCCOCCOc2cccc3c2C(=O)N(C2CCC(=O)NC2=O)C3=O)c1)c1cc(OC)c(OC)c(OC)c1 (stereo partly shown) [dFKBP*-15]
